According to patent US20250382346A1, “NEURONAL PROMOTERS AND USES THEREOF” (priority 2023, published 2025):

Molecular target: T1, rM3Ds (Rattus norvegicus, UniProt P08483, A177S/A238G/A489L/DEL261-437/DEL441-478/E258S/I253V/I483M/INS256[…]/K178L/K182A/K255R/K484R/K486H/L173F/L482A/M480V/R171S/R176Q/R179M/S481M/T174R/T181R/T257A/Y148C)
T1 sequence (P08483 with tags, fused parts or gaps Y148C/R171S/L173F/T174R/R176Q/A177S/K178L/R179M/T181R/K182A/A238G/I253V/K255R/INS256[…]/T257A/E258S/DEL261-437/DEL441-478/M480V/S481M/L482A/I483M/K484R/K486H/A489L): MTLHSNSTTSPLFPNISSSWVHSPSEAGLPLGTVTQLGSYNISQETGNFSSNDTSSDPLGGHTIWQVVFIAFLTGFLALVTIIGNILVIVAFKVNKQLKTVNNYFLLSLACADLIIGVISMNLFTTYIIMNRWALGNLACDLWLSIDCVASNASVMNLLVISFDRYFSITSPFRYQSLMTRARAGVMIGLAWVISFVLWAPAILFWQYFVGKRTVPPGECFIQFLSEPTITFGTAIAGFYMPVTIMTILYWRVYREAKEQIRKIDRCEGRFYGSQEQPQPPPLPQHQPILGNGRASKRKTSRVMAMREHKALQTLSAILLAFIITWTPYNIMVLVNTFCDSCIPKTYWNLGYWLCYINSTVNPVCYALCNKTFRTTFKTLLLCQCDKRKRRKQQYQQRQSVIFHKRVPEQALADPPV
Test: 6-OHDA parkinsonian mouse model: open field and rotarod
Type: in vivo
Design: 2A-EYFP (C); expressed in transfected cells; host or cells: neurons (striatal D1-MSNs) of mice or cynomolgus macaques, transduced in vivo by nigral AAV8R12-G88P7-rM3Ds-2A-EYFP
Conditions: AAV8R12-G88P7-rM3Ds-2A-EYFP, 6-OHDA mice
Protocol: Rodent Parkinson's disease mice models were created through bilateral injection of 6-OHDA using the same methods as described in virus injections (Example 3). A total volume of 1 ul 6-OHDA (5 mg/ml, dissolved in sterile saline containing 0.02% ascorbic acid, Sigma) was injected into the striatum at a speed of 100 nL/min. The coordinates for striatum were 0.5 mm anterior, 1.5 mm lateral, 3.2 mm ventral to the bregma. A premedication of desipramine (25 mg/kg, Sigma) was administered to animals prior to injections of 6-OHDA, in order to increase the selectivity and efficacy of 6-OHDA-induced lesions. Mice were supplemented with DietGel (ClearH2O) for one-week post-surgery. All staining and behavioral experiments were performed at least 14 days following surgery, when the amount of dopamine depletion was maximal and stable.
To investigate the efficacy and safety of D1-MSN specific neuromodulation strategy, AAV8R12-G88P7-rM3Ds-2A-EYFP was injected into the SNr of adult C57/BL6 mice. 6-OHDA was administered bilaterally into the striatum (FIG. 13A). […]
Mice were individually handled for 10-20 seconds per day for at least 5 days to habituate them to the experimenter. […] The behavioral data were analyzed with ANY-maze software (Stoelting Co.).
Mice were individually handled as described in the open field test. […] Latency to fall for each trial was automatically recorded by the apparatus. […]

C[N+]1([O-])CCN(C2=Nc3cc(Cl)ccc3Nc3ccccc32)CC1 [CNO, Clozapine-N-oxide]
motor skill, rotarod test (CNO): partially rescued the motor skill deficit | spontaneous movement in an open field (systemic CNO): drastically reversed the dyskinesia-like phenotype of PD mice
